{
  "source": "patent US10172911B2",
  "about": "“Methods of modulating erythropoiesis with arginine vasopressin receptor 1B molecules” (The United States of America, as represented by the …, priority 2013, dated 2019)",
  "key": {"BM erythroid cells": {"system": "BM erythroid cells", "assay": "Bone marrow erythroid populations after injection of AVP, AVPR1B agonist or EPO (flow cytometry, EdU)", "type": "in vivo, mouse", "experimental": "In vivo AVP-treated/hemorrhaged/control mice were IP injected with 10 μM/1000 g BW 5-ethynyl-2′-deoxyuridine (EdU: Life Technologies) for 2 hours. Single cell suspensions from the tibial and femoral bone marrows of mice (n=5 in each group) were prepared. After lysing the cells with ACK buffer, cells of the erythroid lineage were labeled with antibodies against TER-119 (BD Pharmingen) and CD71 (BD Pharmingen) or CD44 (BD Pharmingen) conjugated with FITC or PE fluorophores. After washing with FACS buffer, cells were fixed/permeabilized according to the manufacturer's recommendation (Life Technologies). Incorporated EdU molecules were visualized by a click reaction with Alexa Fluor 647-conjugated picolyl-azide and cell nuclei were stained with DAPI. Cell cycle characteristics of erythroid cells were detected with a Beckman-Coulter MoFlo Astrios flow cytometer.\nFor lineage negative, Sca-1 positive and c-kit positive (LSK) cell sorting, rat anti-mouse lineage antibodies (anti CD4, CD8, B220, Ter119, Gr-1, CD11b) were added to bone marrow cell suspension after ACK lysis and cells were depleted using anti-rat magnetic beads (Biomag anti rat IgG, Qiagen). Lineage negative cells were stained with c-kit PE/Cy5 and Sca-1-FITC antibodies and the double positive population was further enriched with anti-PE and anti-FITC magnetic beads (Miltenyi). LSK cells were sorted on a DAKO Cytomation MoFlo cell sorter. For LSK subpopulation sorting lineage depleted cells were stained for c-kit, Sca-1, CD48, CD150 and CD34 and 4 LSK subpopulations were sorted using the gating strategy described by Wilson et al. (34). Sorted cells from HSC (LSK, CD34^−, CD48^−, CD150^+), MPP1 (LSK, CD34^+, CD48^−, CD150^+), MPP2 (LSK, CD34^+, CD48^+, CD150^+) and MPP3/4 (LSK, CD34^+, CD48^+, CD150^−) subpopulations were plated in 1×PBS onto coated glass slides fixed with 2% PFA and immunostained for AVPR1B. Erythropoietic progenitors were sorted based on CD71 and Ter119 markers. All cells were sorted using a MoFlo Astrios cell sorter (Beckman Coulter). Competitive Repopulation Assay\nThe inventors determined that AVP induced a fast hematocrit response in severe anemia that is independent of EPO. AVP receptors in the HSPCs was confirmed and they next decided to examine how AVP affects the erythroid lineage cells (developmental stages) in the BM. […] In cell populations sorted as above, the presence of AVPR1B and EPO receptor (EPOR) mRNA using QPCR was also determined. […] AVPR2 mRNA was detected in all populations, whereas AVPR1A mRNA was barely detectable."}, "mice": {"system": "mice", "assay": "EPO neutralization study in hemorrhage", "type": "in vivo, mouse", "experimental": "To infuse vasopressin into the mice, AVP filled ALZET pumps were implanted subcutaneously on the dorsal aspect of the neck (5 ug/day, Alzet 1007D—7 days, 2002-14 days). Vasopressin was also given immediately and 6 hours later as a bolus injection (100 μg/kg). Alzet pumps were inserted subcutaneously. The dimensions and pump specification are: ALZET, (DURECT Corporation, Cupertino, Calif., USA) mini-osmotic pump models 1007D or 2002. The pumps deliver 0.5 μl/h of the desired substance for a for 2-week period. In some cases, erythropoietin antibody (100 μg/mice) was given before anesthesia with the corresponding control antibody. […] Following the initial hemorrhage blood samples were taken at 2, 4 and in some cases 6 days later to determine hematocrit and corrected reticulocyte values.\nIn some cases Erythropoietin antibody (100 μg/mice) was given before anesthesia with the corresponding control antibody."}, "Wnt pathway": {"system": "Wnt pathway", "assay": "Q-PCR and microarray of Wnt pathway genes in AVP-stimulated CD34+ cells", "type": "cell-based, human", "text": "FIGS. 3A-3D show studies of signaling pathways. FIG. 3A provides results from CFU assays showing E-CFU and GM-CFU numbers/1000 plated cells. […] Error bars represent means±SD * p<0.05, ** p<0.01, unpaired t-test. […] The cells were then fixed with 4% paraformaldehyde and washed before immunostaining. Following permeabilization with Triton-X 100 a primary antibody to β-catenin was applied followed by a fluorescent secondary antibody. The β-catenin translocated to the nucleus at the 10^−10 AVP concentration confirming the activation of the Wnt pathway. Scale: 10 μm. […] Using Q-PCR to detect changes in genes that reflect Wnt pathway activation, increases in CCND1, MYC and LEF1 in response to AVP stimulation were observed.\nThe resultant cDNA was amplified with QuantiTect SYBR Green RT-PCR kit (Qiagen) or with SYBR Green Supermix (Bio-Rad, Hercules, Calif.). For qPCR, cDNA (2 μls of cDNA for AVP expression and […] for OXT or beta-actin expression) was amplified with QuantiTect SYBR Green RT-PCR kit and the expression data were normalized to human beta-actin expression."}, "splenectomized mice": {"system": "splenectomized mice", "assay": "Hemorrhage in splenectomized mice", "type": "in vivo, mouse", "settings": "splenectomized mice vs controls", "experimental": "Three to four month old mice were splenectomized and recovered for a month. AVP was administered at the time of bleeding and blood was sampled 2 and 4 days later for hematocrit and reticulocyte measurements."}, "[1]": {"settings": "AVP stimulated CD34+ cells vs control cells"}},
  "data": [
    {"molecule": "NC(=O)CC[C@@H]1NC(=O)[C@H](Cc2ccccc2)NC(=O)[C@H](Cc2ccc(O)cc2)NC(=O)[C@@H](N)CSSC[C@@H](C(=O)N2CCC[C@H]2C(=O)N[C@@H](CCCN=C(N)N)C(=O)NCC(N)=O)NC(=O)[C@H](CC(N)=O)NC1=O", "note": "[AVP, [Arg8]-Vasopressin]", "values": [
      {"measurement": "BM erythroid progenitors (Ter-119, CD 71 gated area)", "setting": "BM erythroid cells; 16 hours after injection", "result": "clear increase in progenitors"},
      {"measurement": "apoptosis in the late progenitor populations", "setting": "BM erythroid cells; EdU, Annexin V and DAPI", "result": "significant decrease in apoptosis"},
      {"measurement": "effect on more matured erythroid populations", "setting": "BM erythroid cells; after hemorrhage, AVP vs EPO", "result": "much more robust effect than EPO"},
      {"measurement": "numbers of more mature erythroid cells (polychromatic and orthochromatic erythroblasts/reticulocytes)", "setting": "BM erythroid cells; bone marrow, flow cytometry", "result": "significantly increased"},
      {"measurement": "CR numbers", "setting": "mice; EPO neutralized group, day 6", "result": "began to increase CR numbers"},
      {"measurement": "CR values over PBS", "setting": "mice; EPO neutralized, day 4", "result": "eliminated this difference"},
      {"measurement": "hematocrit values", "setting": "mice; after EPO neutralization, hemorrhage", "result": "significantly increased hematocrit values"},
      {"measurement": "CR values over PBS", "setting": "mice; control mice, day 4 and 6", "result": "increased the CR values over PBS"},
      {"measurement": "corrected reticulocyte (CR) values, EPO neutralized or control groups, AVP or PBS", "setting": "mice; day 2", "result": "no significant difference"},
      {"measurement": "LEF1 RNA", "setting": "Wnt pathway; [1]", "result": "an increase (statistically not significant)"},
      {"measurement": "MYC RNA", "setting": "Wnt pathway; [1]", "result": "significantly more"},
      {"measurement": "cyclin D1 (CCND1) RNA", "setting": "Wnt pathway; [1]", "result": "significantly more"},
      {"measurement": "difference in Wnt pathway genes (CDON, DKK1, DPP10, FZD7 up; CDKN2A, FST, KLF5 down)", "setting": "Wnt pathway; single microarray study", "result": "over two-fold difference"},
      {"measurement": "AVP-induced hematocrit response", "setting": "splenectomized mice", "result": "no different from controls"}
    ]}
  ]
}
